The values below are quoted from earlier work in PMC8698377, “In Vitro Hepatic Assessment of Cineole and Its Derivatives in Common Brushtail Possums (Trichosurus vulpecula) and Rodents” (Biology, 2021).

Each structure is given as a SMILES string. Read-outs that look alike come from different tables or passages of the source.

Data set [1] concerns CYP3A. More on the design: method as in PMID 12593759. The settings on record: possums, ketoconazole 5 µM, cited from earlier work.
Data set [2] deals with CYP3A. More on the design: method as in PMID 12593759. The settings on record: rats, ketoconazole; cited from earlier work.

Regarding `CC(=O)N1CCN(c2ccc(OCC3COC(Cn4ccnc4)(c4ccc(Cl)cc4Cl)O3)cc2)CC1` (stereo not drawn) [Ketoconazole, ketoconazole], the entries for the “reduction of the formation of 9-hydroxycineole” value with CYP3A [1] (cineole concentration 10 µM) and in the data set on CYP3A [1] (cineole concentration 100 µM) were 15% and 30%, respectively. Moreover, in the data set with CYP3A [2], the “reduction of the metabolite formation” value is 85%.
